Consider 20 molecules from publication PMC8069510, “Synthesis and Evaluation of Novel 2,2-Dimethylthiochromanones as Anti-Leishmanial Agents” (Molecules, 2021).

Like-named read-outs stand apart in the source and are kept apart here. Bounds are passed on as bounds.

The subject of data set [1] is L. infantum axenic amastigotes. In words: Antileishmanial activity on L. infantum axenic amastigotes (luciferase luminescence). In kind it is cell-based, Leishmania infantum. The following applies: for IC50 / activity against L. infantum (in words): axenic amastigotes; for IC50: 48 h incubation, mean (standard deviation), three independent experiments; for S.I. (Selectivity Index) = CC50/IC50: CC50 J774A.1 / IC50 L. infantum axenic amastigotes. Here is the method: (§1) Selected compounds were evaluated for their leishmanicidal ability as previously described, through examining their activity on L. infantum axenic amastigotes, and the results are expressed in Table 2 as IC50 values. In parallel, evaluation of the cytotoxicity of test compounds was performed by MTT assay using the J774A.1 macrophage cell line. Results are presented as CC50 values.
4.2. Bioassay Procedures: Antileishmanial Activity on L. infantum Axenic Amastigotes
L. infantum promastigotes (MHOM/MA/67/ITMAP-263, CNR Leishmania, Montpellier, France, expressing luciferase activity) were cultivated in RPMI 1640 medium supplemented with 10% foetal calf serum (FCS), 2 mM L-glutamine and antibiotics (100 U/mL penicillin and 100 μg/mL streptomycin) and harvested in the logarithmic phase of growth by centrifugation at 900× g for 10 min. The supernatant was carefully removed and replaced by the same volume of RPMI 1640 complete medium at pH 5.4, and then incubated for 24 h at 24 °C. The acidified promastigotes were then incubated for 24 h at 37 °C in a ventilated flask to transform promastigotes into axenic amastigotes. The effects of the tested compounds on the growth of L. infantum axenic amastigotes were assessed as follows. L. infantum amastigotes were incubated at a density of 2 × 10^6 parasites/mL in sterile 96-well plates with various concentrations of compounds dissolved in DMSO (final concentration less than 0.5% v/v), in duplicate. Appropriate controls, DMSO and amphotericin, were added to each set of experiments. After a 48 h incubation period at 37 °C, each plate-well was then microscopically examined to detect any precipitate formation. To estimate the luciferase activity of axenic amastigotes, 80 μL of each well were transferred to white 96-well plates, Steady Glow® reagent (Promega, Charbonnières-les-Bains, France) was added according to the manufacturer’s instructions, and plates were incubated for 2 min. The luminescence was measured using a Microbeta Luminescence Counter (Perkin Elmer, Villebon-sur-Yvette, France). The inhibitory concentration 50% (IC50) was defined as the concentration of drug required to inhibit by 50% the metabolic activity of L. infantum amastigotes compared to control. IC50 values were calculated by non-linear regression analysis on dose response curves, using the TableCurve 2D V5 software (Systat Software, San Jose, CA, USA). IC50 values represent the mean of three independent experiments.

Data set [2] deals with intracellular amastigotes of L. infantum. Further details: method as in PMID 32258470. The following applies: cited from earlier work.
The test system of data set [3] is axenic amastigotes of L. infantum. Further details: method as in PMID 32258470. The following applies: cited from earlier work.
The subject of data set [4] is amastigotes of Trypanosoma cruzi. Further details: method as in PMID 29935351. Particulars: cited from earlier work.
Data set [5] relates to amastigotes of L. infantum. Further details: method as in PMID 29935351. The following applies: cited from earlier work.
Data set [6] relates to L. (V) panamensis. Particulars: read-out: EC50 against L. (V) panamensis, cited from earlier work.
Details of data set [7]: method as in PMID 29286346. The following applies: cited from earlier work.
Data set [8] concerns L. pifanoi. Further details: method as in PMID 32734890. The following applies: topical application, co-formulated with saponins; cited from earlier work.
Data set [9] concerns L. braziliensis. Further details: method as in PMID 32734890. The following applies: topical application, co-formulated with saponins; cited from earlier work.
Data set [10] can be described thus: Cytotoxicity by MTT assay on J774A.1 macrophage cell line. In kind it is cell-based, mouse. The following applies: mouse, J774A.1 macrophage cells; MTT, 72 h incubation; mean (standard deviation). Here is the method: as §1
(§2) 4.3. Cytotoxicity Evaluation on J774A.1 Cells
(§3) Evaluation of the cytotoxicity of test compounds was performed by MTT assay using the J774A.1 cell line (mouse macrophage cell line, Sigma-Aldrich). Briefly, cells (5 × 10^4 cells/mL) in 100 µL of complete medium, [DMEM High glucose supplemented with 10% fetal calf serum (FCS), 2 mM L-glutamine and antibiotics (100 U/mL penicillin and 100 µg/mL streptomycin)] were seeded into each well of 96-well plates and incubated at 37 °C in a humidified 5% CO2 with 95% air atmosphere. After a 24 h incubation, 100 µL of medium with various product concentrations and appropriate controls were added and the plates were incubated for 72 h at 37 °C. Each plate-well was then examined under the microscope to detect possible precipitate formation before the medium was aspirated from the wells. 100 µL of MTT solution (0.5 mg/mL in RPMI) was then added to each well. Cells were incubated for 2 h at 37 °C. After this time, the MTT solution was removed and DMSO (100 µL) was added to dissolve the resulting formazan crystals. Plates were shaken vigorously (300 rpm) for 5 min. The absorbance was measured at 570 nm with a microplate spectrophotometer. DMSO was used as blank and doxorubicin (Sigma Aldrich, Saint-Quentin-Fallavier, France) as positive control. CC50 values were calculated by non-linear regression analysis on dose–response curves, using the TableCurve 2D V5 software.

The subject of data set [11] is J774A.1 cells. Described as above. In kind it is cell-based, mouse. The method, then:
as §1, §2, §3

By IC50 is commonly meant the concentration at which inhibition is half-maximal. `C[C@@H]1[C@H](O)[C@@H](C)/C=C/C=C/C=C/C=C/C=C/C=C/C=C/[C@H](O[C@@H]2O[C@H](C)[C@@H](O)[C@H](N)[C@@H]2O)C[C@@H]2O[C@](O)(C[C@@H](O)C[C@@H](O)[C@H](O)CC[C@@H](O)C[C@@H](O)CC(=O)O[C@H]1C)C[C@H](O)[C@H]2C(=O)O` [Amphotericin B, reference compound] gave an IC50 in data set [1] (Leishmania infantum) of 0.072 µM.

`CCCCCCCCNCc1ccc2c(c1)C(=O)CC(C)(C)O2` [Compound 3]: the IC50 was 24.6 µM in data set [2] and 25.3 µM in data set [3].

As for `CCCCCCCCNCc1ccc(OC)cc1` [Compound 5], the results for the IC50 in data set [4] and in [5] were 5.8 µM and 1.3 µM, respectively.

For orientation: EC50 means the concentration that produces a half-maximal response. As to `O=C1C=C(c2ccc(C(F)(F)F)cc2)S(=O)(=O)c2ccc(F)cc21` [Compound 6], the EC50 in data set [6] is below 10 µM.

On to `NC(=S)N/N=C1\CC(c2ccccc2)Sc2ccccc21` (stereo not shown) [Compound 7], for which, in [6] (acyl hydrazone derivatives), the EC50 was 5.1 µM. Further, the “cytotoxicity (in words)” value in data set [7] is on record as “low cytotoxicity”.

On to `O=C(N/N=C1\CCSc2ccccc21)c1ccccc1` [Compound 8], for which the “effect on parasite survival and infectivity (in words)” value in [8] and in data set [9] was “very effective” in each case.

What is called CC50 is the concentration giving 50% cytotoxicity. Lower therefore signals harm at low concentration. For `CC1(C)CC(=O)c2cc(COC(=O)C/C=C/c3ccccc3)ccc2S1` [Compound 10a, (2,2-Dimethyl-4-oxothiochroman-6-yl)methyl (E)-4-phenylbut-3-enoate], in data set [1], the “S.I. (Selectivity Index) = CC50/IC50” value is above 3.97. The molecule further returned an IC50 in [1] (Leishmania infantum) of 34.4 µM. The same molecule displayed a CC50 at 72 h in [10] above 136 µM.

Take `CC1(C)CC(=O)c2cc(COC(=O)/C=C/C=C/c3ccc4c(c3)OCO4)ccc2S1` [Compound 10b, (2,2-Dimethyl-4-oxothiochroman-6-yl)methyl (2E,4E)-5-(benzo[d][1,3]dioxol-5-yl)penta-2,4-dienoate]: the “S.I. (Selectivity Index) = CC50/IC50” value in [1] is given as 0.25. This molecule gave an IC50 in data set [1] (Leishmania infantum) of 91.3 µM. The molecule also displayed a half-maximal cytotoxic concentration (CC50) at 72 h in data set [10] of 22.5 µM.

With `CC1(C)CC(=O)c2cc(CNC(=O)C/C=C/c3ccccc3)ccc2S1` [Compound 11a, (E)-N-((2,2-Dimethyl-4-oxothiochroman-6-yl)methyl)-4-phenylbut-3-enamide], in data set [1], the “S.I. (Selectivity Index) = CC50/IC50” value is reported as 3.01 and the “activity against L. infantum (in words)” value is on record as “notable anti-leishmanial activity”. In addition, the IC50 in data set [1] (Leishmania infantum) amounted to 10.5 µM. The CC50 at 72 h in data set [10] is 31.6 µM.

`CC1(C)CC(=O)c2cc(CNC(=O)/C=C/C=C/c3ccc4c(c3)OCO4)ccc2S1` [Compound 11c, (2E,4E)-5-(Benzo[d][1,3]dioxol-5-yl)-N-((2,2-dimethyl-4-oxothiochroman-6-yl)methyl)penta-2,4-dienamide] displayed an IC50 in [1] (Leishmania infantum) above 119 µM. Also, the “activity against L. infantum (in words)” value in data set [1] was “devoid of activity”. For the same molecule, the CC50 at 72 h in data set [10] is above 119 µM.

As for `CCCCCCCC(=O)NCc1ccc2c(c1)C(=O)CC(C)(C)S2` [Compound 11d, N-((2,2-Dimethyl-4-oxothiochroman-6-yl)methyl)octanamide], the “S.I. (Selectivity Index) = CC50/IC50” value in data set [1] is on record as 2.68. In data set [1] (Leishmania infantum), this molecule had a concentration for half-maximal inhibition (IC50) of 51.3 µM. Half-maximal cytotoxicity in data set [10] (CC50 at 72 h) was put at 137 µM.

As for `CC1(C)CC(=O)c2cc(CNC(=O)CCCCCCCCBr)ccc2S1` [Compound 11e, 9-Bromo-N-((2,2-dimethyl-4-oxothiochroman-6-yl)methyl)nonanamide], in data set [1], the “S.I. (Selectivity Index) = CC50/IC50” value amounted to 8.06 and the “activity against L. infantum (in words)” value is given as “notable anti-leishmanial activity”. For the same molecule, it took 7.2 µM to reach half-maximal inhibition in [1] (Leishmania infantum) (IC50). Moreover, the CC50 at 72 h in data set [10] is 58 µM.

As to `CCCCNCc1ccc2c(c1)C(=O)CC(C)(C)S2` [Compound 12a, 6-((Butylamino)methyl)-2,2-dimethylthiochroman-4-one], the “S.I. (Selectivity Index) = CC50/IC50” value in data set [1] was determined as 1.25. This molecule also showed an IC50 in data set [1] (Leishmania infantum) of 26.5 µM. This molecule had a CC50 at 72 h in data set [10] of 33.2 µM.

Consider `CCCCCCNCc1ccc2c(c1)C(=O)CC(C)(C)S2` [Compound 12b, 6-((Hexylamino)methyl)-2,2-dimethylthiochroman-4-one], for which the “S.I. (Selectivity Index) = CC50/IC50” value in data set [1] is 1.12. Also, in data set [1] (Leishmania infantum), half-maximal inhibition (IC50) was put at 23.1 µM. In addition, the CC50 at 72 h in data set [10] stood at 25.8 µM.

For the molecule `CCCCCCCCNCc1ccc2c(c1)C(=O)CC(C)(C)S2` [Compound 12c, 2,2-Dimethyl-6-((octylamino)methyl)thiochroman-4-one], the “S.I. (Selectivity Index) = CC50/IC50” value in data set [1] came out at 1.16. In addition, in [1] (Leishmania infantum), the IC50 is 19.5 µM. Also, the 50% cytotoxic concentration (CC50) at 72 h in data set [10] was found to be 22.6 µM.

Turning to `CCCCCCCCCCNCc1ccc2c(c1)C(=O)CC(C)(C)S2` [Compound 12d, 2,2-Dimethyl-6-((decylamino)methyl)thiochroman-4-one], the “S.I. (Selectivity Index) = CC50/IC50” value in data set [1] is on record as 1.86. The molecule further registered an IC50 in data set [1] (Leishmania infantum) of 12.4 µM. In [10], this molecule returned a CC50 at 72 h of 23.1 µM.

For `CCCCCCCCNCc1ccc2c(c1)C(=O)CC(C)(C)[S+]2[O-]` (stereo not shown) [Compound 13, 2,2-Dimethyl-6-((octylamino)methyl)thiochroman-4-one 1-oxide], the “S.I. (Selectivity Index) = CC50/IC50” value in data set [1] is listed as 1.22. Moreover, the IC50 in [1] (Leishmania infantum) was found to be 33.4 µM. This molecule also had a CC50 at 72 h in data set [10] of 40.9 µM.

For `CCCCCCCCNCc1ccc2c(c1)C(=O)CC(C)(C)S2(=O)=O` [Compound 14, 2,2-Dimethyl-6-((octylamino)methyl)thiochroman-4-one 1,1-dioxide], the “S.I. (Selectivity Index) = CC50/IC50” value in data set [1] amounted to 1.27. In [1] (Leishmania infantum), this molecule yielded a half-maximal inhibitory concentration (IC50) of 33.8 µM. Further, the CC50 at 72 h in data set [10] worked out at 42.8 µM.

Regarding `COc1cccc2c1C(=O)c1c(O)c3c(c(O)c1C2=O)C[C@@](O)(C(=O)CO)C[C@@H]3O[C@H]1C[C@H](N)[C@H](O)[C@H](C)O1` [Doxorubicin, reference compound], in data set [10], the midpoint of cytotoxicity, the CC50 at 72 h, lay at 0.047 µM.

Regarding “(2,2-Dimethyl-4-oxothiochroman-6-yl)methyl-6-phenylhex-5-enoate [Compound 11b]”, the IC50 in [1] was determined as 19.9 µM. The “cytotoxicity to macrophages (in words)” value in data set [11] (J774A.1, compared with activity against axenic amastigotes) is listed as “comparably cytotoxic to macrophages”. Besides, half-maximal cytotoxicity in [11] (MTT, 72 h incubation, mean (standard deviation)) (CC50) was put at 14 µM.
